In patent US20080312085A1, “Pesticidal Compositions” (priority 2005, published 2008) one finds mortality and melting point data, which are given here for 14 compounds.

A word on the mortality: it is the share of the test organisms that died. Broadly, the melting point is the temperature of the solid-liquid transition.

For data set [1], the system named is Green Peach Aphid (Myzus persicae). Put plainly: Green peach aphid test, leaves of infested pepper plants dipped. It is filed as in vivo. The settings on record: 120 h, aphid mortality determined after 5 days, read-out: mortality in comparison with untreated controls. An excerpt: B.2 Green Peach Aphid (Myzus persicae)
(§1) The active compounds were formulated in 50:50 acetone:water and 100 ppm Kinetica™ surfactant.
Pepper plants in the 2nd leaf-pair stage (variety ‘California Wonder’) are infested with approximately 40 laboratory-reared aphids by placing infested leaf sections on top of the test plants. The leaf sections are removed after 24 hr. The leaves of the intact plants are dipped into gradient solutions of the test compound. Aphid mortality on the treated plants, relative to mortality on check plants, is determined after 5 days.

Data set [2] deals with Cotton Aphid (Aphis gossypii). Put plainly: Cotton aphid test, cotyledons of infested cotton plants dipped. It is filed as in vivo. To be noted: 120 h, aphid mortality determined after 5 days, read-out: mortality in comparison with untreated controls.
Excerpt: B.1 Cotton Aphid (Aphis gossypii)
as §1
Cotton plants in the cotyledon stage (variety ‘Delta Pine’) are infested with approximately 100 laboratory-reared aphids by placing infested leaf sections on top of the test plants. The leaf sections are removed after 24 hr. The cotyledons of the intact plants are dipped into gradient solutions of the test compound. Aphid mortality on the treated plants, relative to mortality on check plants, is determined after 5 days.

Data set [3] relates to Cowpea Aphid (aphis craccivora). Put plainly: Cowpea aphid test, colonized potted cowpea plants sprayed. It is filed as in vivo. To be noted: population reduction recorded after 24, 72 and 120 hours, read-out: mortality in comparison with untreated controls. On the procedure: B.3 Cowpea Aphid (aphis craccivora)
The active compounds were formulated in 50:50 acetone:water. Potted cowpea plants colonized with 100-150 aphids of various stages were sprayed after the pest population has been recorded. Population reduction was recorded after 24, 72, and 120 hours.

In data set [4] the test system is Vetch Aphid (Megoura viciae). The data set is described as follows: Vetch aphid test, sprayed bean leaf disks in microtiterplates. It is filed as in vivo. To be noted: foliar, 144 h, bean leaf disks sprayed with 2.5 μl, 6 days, read-out: mortality in comparison with untreated controls. On the procedure:
B.4 Vetch Aphid (Megoura viciae)
The active compounds were formulated in 1:3 DMSO:water. Bean leaf disks were placed into microtiterplates filled with 0.8% agar-agar and 2.5 ppm OPUS™. The leaf disks were sprayed with 2.5 μl of the test solution and 5 to 8 adult aphids were placed into the microtiterplates which were then closed and kept at 22-24° C. and 35-45% under fluorescent light for 6 days. Mortality was assessed on the basis of vital, reproduced aphids. Tests were replicated twice.

On to `CCc1cc(CC(NC2=NCCS2)c2cccc(Cl)c2Cl)on1` (centres unmarked) [compound 24], for which the mortality at 300 ppm in data set [1] and in data set [2] was > 80% in each case.

For `Cc1cc(CC(NC2=NCCS2)c2cccc(Cl)c2Cl)on1` (centres unmarked) [compound 23], the mortality at 300 ppm in data set [3] was > 80%.

With `Clc1cccc(C(Cc2ccc3ccccc3n2)NC2=NCCS2)c1Cl` (centres unmarked) [compound 9], in data set [4], the mortality at 2500 ppm was > 80%. The mortality at 300 ppm in data set [3], in data set [1] and in data set [2] was > 80% each time.

Turning to `Clc1cccc(C(Cc2cc(Cl)c3ccccc3n2)NC2=NCCS2)c1Cl` (centres unmarked) [Compound Example 12], the melting point was 71 to 73 °C.

On to `Clc1cccc(C(Cc2nccc3ccccc23)NC2=NCCS2)c1Cl` (centres unmarked) [compound 8], for which the mortality at 2500 ppm in data set [4] was > 80%. Further, the mortality at 300 ppm in data set [3], in data set [1] and in data set [2] was > 80% throughout.

`Cc1cc(C)nc(CC(NC2=NCCS2)c2cccc(Cl)c2Cl)c1` (centres unmarked) [compound 6]: the mortality at 2500 ppm in data set [4] was > 80%. In addition, the mortality at 300 ppm in data set [3], in data set [1] and in data set [2] was > 80% throughout.

In the case of `Clc1cccc(C(Cc2cccnc2)NC2=NCCS2)c1Cl` (centres unmarked) [compound 13], the mortality at 300 ppm in data set [1] was > 80%.

Consider `Cc1nc(CC(NC2=NCCS2)c2cccc(Cl)c2Cl)oc1C` (centres unmarked) [compound 31], for which the mortality at 300 ppm in data set [3] is > 80%.

Consider `Clc1cccc(C(Cc2ccccn2)NC2=NCCS2)c1Cl` (centres unmarked) [compound 1], for which the mortality at 300 ppm in data set [3], in data set [1] and in data set [2] was > 80% in each case.

As for `c1ccc(C(Cc2cccs2)NC2=NCCS2)cc1` (centres unmarked) [compound 39], the mortality at 300 ppm in data set [1] and in data set [2] was > 80% throughout.

For the compound `Cc1ccc(CC(NC2=NCCS2)c2cccc(Cl)c2Cl)nc1` (centres unmarked) [compound 3], the mortality at 300 ppm in data set [3], in data set [1] and in data set [2] was > 80% in each case.

`Cc1cccc(CC(NC2=NCCS2)c2cccc(Cl)c2Cl)n1` (centres unmarked) [compound 4]: the mortality at 300 ppm in data set [3], in data set [1] and in data set [2] was > 80% in each case.

On to `Clc1cccc(C(Cc2cn(Cc3ccccc3)nn2)NC2=NCCS2)c1Cl` (centres unmarked) [Compound Example 35], for which the melting point lay in the range of 74 to 89 °C.

`c1ccc(C(Cc2ccco2)NC2=NCCS2)cc1` (centres unmarked) [compound 38]: the mortality at 300 ppm in data set [1] and in data set [2] was > 80% in each case.
